Data: patent US20210255193A1, “LYSINE REACTIVE PROBES AND USES THEREOF” (The Scripps Research Institute, priority 2017, published 2021)
Values belong to the compound of their own block, whether it stands above or below them.

Legend:
SPAST Spastin = target: T1, SPAST Spastin (Homo sapiens, UniProt Q9UBP0); assay: competitive isoTOP-ABPP; assay type: binding; details: for R value (DMSO/fragment) for probe 1 labeling: Q9UBP0_K180; for R value (DMSO/fragment) for probe 1 labeling / isoTOP-ABPP ratio (R) at liganded lysine Q9UBP0_K180 / isoTOP-ABPP reactivity ratio at lysine Q9UBP0_K180: 50 uM, in vitro; for R value (DMSO/fragment) for probe 1 labeling / isoTOP-ABPP reactivity ratio at lysine Q9UBP0_K180: 231 sol; for isoTOP-ABPP ratio (R) at liganded lysine Q9UBP0_K180: sol, 231; for isoTOP-ABPP ratio, lysine Q9UBP0_K180: 50 uM_231_sol_in vitro
T1 construct: endogenous in cells; host or cells: MDA-MB-231 lysate
T1 sequence (Q9UBP0 1-616): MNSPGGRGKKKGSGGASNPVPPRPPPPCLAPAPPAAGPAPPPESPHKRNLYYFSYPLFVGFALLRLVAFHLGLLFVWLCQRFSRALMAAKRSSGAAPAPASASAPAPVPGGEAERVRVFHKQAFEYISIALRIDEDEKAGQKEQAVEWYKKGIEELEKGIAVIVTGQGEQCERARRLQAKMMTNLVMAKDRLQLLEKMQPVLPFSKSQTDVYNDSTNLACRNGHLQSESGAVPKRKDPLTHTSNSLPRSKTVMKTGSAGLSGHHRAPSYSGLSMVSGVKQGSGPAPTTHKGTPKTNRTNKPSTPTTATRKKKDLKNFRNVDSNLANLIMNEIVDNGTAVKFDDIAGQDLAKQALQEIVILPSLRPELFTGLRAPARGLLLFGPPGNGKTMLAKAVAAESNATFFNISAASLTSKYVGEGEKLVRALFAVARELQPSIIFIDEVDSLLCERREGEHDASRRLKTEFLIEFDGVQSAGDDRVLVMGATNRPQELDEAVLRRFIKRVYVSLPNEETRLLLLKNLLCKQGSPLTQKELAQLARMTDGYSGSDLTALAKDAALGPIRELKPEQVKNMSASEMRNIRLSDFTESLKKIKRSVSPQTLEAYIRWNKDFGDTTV
How it was run: (§1)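 Readout: isotopic light/heavy MS1 peak-area ratio (R, DMSO heavy over compound light), median across peptides sharing a modified lysine. Lysate received fragment (activated esters 50 μM, guanidinylating agents 100 μM final) or DMSO, then 0.1 mM STP-alkyne probe for 1 h at ambient temperature.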

[1] = target: T2, SOD2 Superoxide dismutase (Homo sapiens, UniProt P04179); assay: competitive isoTOP-ABPP; assay type: binding; details: for isoTOP-ABPP ratio (R) at liganded lysine P04179_K68: sol, 231; for isoTOP-ABPP ratio, lysine P04179_K68: 50 uM_231_sol_in vitro
T2 construct: isoTOP-ABPP experiments performed in cell lysates (in vitro); endogenous in cells; host or cells: MDA-MB-231 soluble lysate
T2 sequence (P04179 25-222): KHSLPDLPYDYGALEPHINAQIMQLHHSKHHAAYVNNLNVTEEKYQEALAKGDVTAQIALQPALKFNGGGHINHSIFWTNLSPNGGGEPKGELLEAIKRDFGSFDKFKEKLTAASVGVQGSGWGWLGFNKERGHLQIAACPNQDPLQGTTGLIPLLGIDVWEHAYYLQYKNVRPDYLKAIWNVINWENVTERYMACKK
How it was run: as §1

[2] = test system: lysines in the human breast cancer cell MDA-MB-231 proteome; assay: competitive isoTOP-ABPP, proteome-wide fragment reactivity; assay type: binding; details: competition with probe 1 (100 μM)
Protocol: In vitro covalent fragment treatment for isoTOP-ABPP. All compounds were made up as solutions in DMSO (100×) and were used at a final concentration of 50 μM for activated esters and 100 μM for guanidinylating agents. For each profiling sample, 0.5 ml of lysate was treated with 5 μl of the 100× compound stock solution or 5 μl of DMSO. Samples were treated with activated esters for
STP-alkyne labeling and click chemistry. For concentration-dependent reactivity measurements by isoTOP-ABPP, 0.5 ml proteome aliquots were treated at ambient temperature with 1 mM STP-alkyne 1 (5 μl of 100 mM stock in DMSO) and 0.1 mM STP alkyne 1 (5 μl of 10 mM stock in DMSO), respectively. For competitive isoTOP-ABPP, after in vitro fragment treatment (detailed above), the samples were labeled for 1 h at ambient temperature with 0.1 mM STP-alkyne 1 (5 μl of 10 mM stock in DMSO). Samples were conjugated by copper-mediated azide-alkyne cycloaddition (CuAAC) to either the light (1 mM STP-alkyne or fragment treated) or heavy (0.1 mM STP-alkyne or DMSO treated) TEV tags (10 μl of 5 mM stocks in DMSO, final concentration=100 μM) using tris(2-carboxyethyl)phosphine hydrochloride
R value calculation and processing. The ratios of light and heavy MS1 peaks for each unique peptide were quantified with a CIMAGE software using default parameters (3 MS1 acquisitions per peak and signal to noise threshold set to 2.5). For reactivity measurements by isoTOP-ABPP, the R value was calculated from the ratio of MS1 peak areas, comparing the 1 mM STP alkyne sample (light TEV tag) with the 0.1 mM STP alkyne sample (heavy TEV tag). For competitive isoTOP-ABPP, the R value was calculated from the ratio of MS1 peak areas, comparing the DMSO treated sample (heavy TEV tag) with the compound treated sample (light TEV tag). […] Ratios for unique peptide entries are calculated for each experiment; overlapping peptides with the same modified lysine (for example, different charge states, MudPIT chromatographic steps or tryptic termini) are grouped together and the median ratio is reported as the final ratio (R). The peptide ratios reported by CIMAGE were further filtered to ensure the removal or correction of low-quality ratios in each individual data set. The quality filters applied were the following: removal of half tryptic peptides; for ratios with high standard deviations from the median (90% of the median or above) the lowest ratio was taken instead of the median; removal of peptides with R=20 and only a single MS2 event triggered during the elution of the parent ion; manual annotation of all the peptides with ratios of 20, removing any peptides with low quality elution profiles that remained after the previous curation steps (only done for competitive isoTOP-ABPP).
Cross-data processing for fragment screening. For compound treated samples, biological replicates of the same condition were averaged, if the standard deviation was below 60% of the mean; otherwise, for lysines with at least one R value <4 for a particular compound, the lowest value of the ratio set was taken. For lysines, where all R values for a particular compound were ≥4, the average was reported. For peptides containing several possible modified lysines, the lysine with the highest number of quantification events was used for analysis and the remaining, redundant peptides were reported as alternative modification sites. Peptides included in the aggregate dataset (those used for further bioinformatics and statistical analyses) were required to have been quantified in 2 experiments for competitive isoTOP-ABPP. Lysines were categorized as liganded, if they had at least one ratio R≥4 (hit fragments). For liganded lysines with R=20 for all liganding events, lysines were required to have been quantified with R=20 in two separate experiments and were further required to have been quantified with R<20 in one additional experiment. […]

[3] = target: T3, TARDBP TAR DNA-binding protein 43 (Homo sapiens, UniProt Q13148); assay: competitive isoTOP-ABPP; details: for isoTOP-ABPP ratio, lysine Q13148_K114: 50 uM_231_sol_in vitro; for isoTOP-ABPP ratio (R) at liganded lysine Q13148_K114: sol, 231
T3 construct: isoTOP-ABPP experiments performed in cell lysates (in vitro); endogenous in cells; host or cells: soluble proteome of human cancer cell lines (MDA-MB-231, Ramos, Jurkat)
How it was run: as §1

T3 sequence (Q13148 whole entry): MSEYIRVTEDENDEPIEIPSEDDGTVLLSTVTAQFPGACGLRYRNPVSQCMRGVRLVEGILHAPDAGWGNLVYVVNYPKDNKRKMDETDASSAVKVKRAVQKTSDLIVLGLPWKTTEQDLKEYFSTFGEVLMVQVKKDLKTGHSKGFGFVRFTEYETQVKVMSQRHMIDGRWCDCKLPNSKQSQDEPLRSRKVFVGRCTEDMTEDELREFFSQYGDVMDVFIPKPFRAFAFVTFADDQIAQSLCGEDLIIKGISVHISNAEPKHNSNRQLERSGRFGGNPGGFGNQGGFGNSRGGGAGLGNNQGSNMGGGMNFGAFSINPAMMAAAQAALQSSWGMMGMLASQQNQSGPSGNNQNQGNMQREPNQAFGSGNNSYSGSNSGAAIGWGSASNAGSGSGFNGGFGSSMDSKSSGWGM

R value (DMSO/fragment) for probe 1 labeling (SPAST Spastin): 1.3
Compound: O=C(CCc1cn(-c2ccccc2)nc1-c1ccccc1)Oc1c(F)c(F)c(F)c(F)c1F [fragment 19, Pentafluorophenyl 3-(1,3-diphenyl-1H-pyrazol-4-yl)propanoate]

Compound: O=C(Oc1ccc([N+](=O)[O-])cc1[N+](=O)[O-])C(c1ccccc1)(c1ccccc1)c1ccccc1 [fragment 42, 2,4-Dinitrophenyl 2,2,2-triphenylacetate]
isoTOP-ABPP ratio (R) at liganded lysine Q9UBP0_K180 (SPAST Spastin): 1.0

Compound: CC(C)(C)OC(=O)NCCCC(=O)Oc1ccc([N+](=O)[O-])cc1[N+](=O)[O-] [fragment 41, 2,4-Dinitrophenyl 4-((tert-butoxycarbonyl)amino)butanoate]
isoTOP-ABPP ratio (R) at liganded lysine Q9UBP0_K180 (SPAST Spastin): 1.4
isoTOP-ABPP ratio (R) at liganded lysine P04179_K68 ([1]; 50 uM, in vitro): 4.8

isoTOP-ABPP reactivity ratio at lysine P04179_K68 ([1]; 50 uM, 231 sol, in vitro): 1.2
Compound: O=C(CCc1coc2cc(F)ccc2c1=O)Oc1c(F)c(F)c(F)c(F)c1F [fragment 26, Pentafluorophenyl 3-(7-fluoro-4-oxo-4H-chromen-3-yl)propanoate]

isoTOP-ABPP ratio, lysine P04179_K68 [1]: 0.9
Compound: NC(=O)c1cc(C(F)(F)F)cc(C(F)(F)F)c1 [fragment 51, reference compound]
lysine reactivity [2]: No lysine reactivity was observed

isoTOP-ABPP reactivity ratio at lysine Q9UBP0_K180 (SPAST Spastin): 2.1
isoTOP-ABPP reactivity ratio at lysine P04179_K68 ([1]; 50 uM, 231 sol, in vitro): 0.9
Compound: O=C(CN1C(=O)c2ccccc2C1=O)Oc1c(F)c(F)c(F)c(F)c1F [fragment 27, Pentafluorophenyl 2-(1,3-dioxoisoindolin-2-yl)acetate]

Compound: Cn1cc(CC(=O)Oc2ccc([N+](=O)[O-])cc2[N+](=O)[O-])c2ccccc21 [fragment 32, 2,4-Dinitrophenyl 2-(1-methyl-1H-indol-3-yl)acetate]
isoTOP-ABPP reactivity ratio at lysine Q9UBP0_K180 (SPAST Spastin): 2.5
isoTOP-ABPP reactivity ratio at lysine P04179_K68 ([1]; 50 uM, 231 sol, in vitro): 1.1

Compound: O=C(CCc1ccc2c(c1)OCO2)Oc1ccc([N+](=O)[O-])cc1[N+](=O)[O-] [fragment 45, 2,4-Dinitrophenyl 3-(benzo[d][1,3]dioxol-5-yl)propanoate]
isoTOP-ABPP ratio, lysine Q9UBP0_K180 (SPAST Spastin): 1.7
isoTOP-ABPP ratio, lysine P04179_K68 [1]: 0.9
isoTOP-ABPP ratio, lysine Q13148_K114 [3]: 20.0

Compound: O=C(CCc1coc2cc(F)ccc2c1=O)Oc1ccc([N+](=O)[O-])cc1[N+](=O)[O-] [fragment 36, 2,4-Dinitrophenyl 3-(7-fluoro-4-oxo-4H-chromen-3-yl)propanoate]
isoTOP-ABPP ratio (R) at liganded lysine P04179_K68 ([1]; 50 uM, in vitro): 2.1
isoTOP-ABPP ratio (R) at liganded lysine Q13148_K114 ([3]; 50 uM, in vitro): 1.2

Compound: O=C(CC12CC3CC(CC(C3)C1)C2)Oc1ccc([N+](=O)[O-])cc1[N+](=O)[O-] [fragment 38, 2,4-Dinitrophenyl 2-(adamantan-1-yl)acetate]
isoTOP-ABPP ratio (R) at liganded lysine Q9UBP0_K180 (SPAST Spastin): 2.1

R value (DMSO/fragment) for probe 1 labeling (SPAST Spastin): 1.0
R value (DMSO/fragment) for probe 1 labeling ([1]; P04179_K68, 50 uM, 231 sol, in vitro): 1.0
R value (DMSO/fragment) for probe 1 labeling ([3]; Q13148_K114, 50 uM, 231 sol, in vitro): 0.8
Compound: Cn1cc(CC(=O)Oc2c(F)c(F)c(F)c(F)c2F)c2ccccc21 [fragment 22, Pentafluorophenyl 2-(1-methyl-1H-indol-3-yl)acetate]

isoTOP-ABPP reactivity ratio at lysine Q9UBP0_K180 (SPAST Spastin): 1.1
isoTOP-ABPP reactivity ratio at lysine Q13148_K114 ([3]; 50 uM, 231 sol, in vitro): 1.0
Compound: O=C(Oc1c(F)c(F)c(F)c(F)c1F)C1CCN(C(=O)OCc2ccccc2)CC1 [fragment 24, 1-Benzyl 4-(pentafluorophenyl) piperidine-1,4-dicarboxylate]

isoTOP-ABPP reactivity ratio at lysine Q9UBP0_K180 (SPAST Spastin): 1.2
Compound: O=C(Oc1c(F)c(F)c(F)c(F)c1F)c1ccc2ccccc2n1 [fragment 25, Pentafluorophenyl quinoline-2-carboxylate]

Compound: O=C(Oc1ccc([N+](=O)[O-])cc1[N+](=O)[O-])c1cc(C(F)(F)F)cc(C(F)(F)F)c1 [fragment 31, 2,4-Dinitrophenyl 3,5-bis(trifluoromethyl)benzoate]
isoTOP-ABPP reactivity ratio at lysine Q9UBP0_K180 (SPAST Spastin): 1.1
isoTOP-ABPP reactivity ratio at lysine P04179_K68 ([1]; 50 uM, 231 sol, in vitro): 1.5

Compound: N#Cc1ccc(C(=O)Oc2ccc([N+](=O)[O-])cc2[N+](=O)[O-])cc1 [fragment 44, 2,4-Dinitrophenyl 4-cyanobenzoate]
isoTOP-ABPP ratio, lysine P04179_K68 [1]: 1.6
isoTOP-ABPP ratio, lysine Q13148_K114 [3]: 20.0

Compound: O=C(ON1C(=O)CCC1=O)c1cc(C(F)(F)F)cc(C(F)(F)F)c1 [fragment 46, 3,5-Bis(trifluoromethyl)benzoic acid NHS ester]
isoTOP-ABPP ratio, lysine Q9UBP0_K180 (SPAST Spastin): 4.4
isoTOP-ABPP ratio, lysine P04179_K68 [1]: 0.9

Compound: O=C(Oc1ccc([N+](=O)[O-])cc1[N+](=O)[O-])c1ccc(Oc2ccccc2)cc1 [fragment 39, 2,4-Dinitrophenyl 4-phenoxybenzoate]
isoTOP-ABPP ratio (R) at liganded lysine Q9UBP0_K180 (SPAST Spastin): 1.4
isoTOP-ABPP ratio (R) at liganded lysine P04179_K68 ([1]; 50 uM, in vitro): 1.0
isoTOP-ABPP ratio (R) at liganded lysine Q13148_K114 ([3]; 50 uM, in vitro): 0.9

Compound: O=C(Oc1ccc([N+](=O)[O-])cc1[N+](=O)[O-])c1ccc(-c2ccccc2)cc1 [fragment 37, 2,4-Dinitrophenyl [1,1′-biphenyl]-4-carboxylate]
isoTOP-ABPP ratio (R) at liganded lysine Q9UBP0_K180 (SPAST Spastin): 1.1
isoTOP-ABPP ratio (R) at liganded lysine P04179_K68 ([1]; 50 uM, in vitro): 1.7
isoTOP-ABPP ratio (R) at liganded lysine Q13148_K114 ([3]; 50 uM, in vitro): 1.3

Compound: COc1cc(CCC(=O)Oc2ccc([N+](=O)[O-])cc2[N+](=O)[O-])cc(OC)c1OC [fragment 33, 2,4-Dinitrophenyl 3-(3,4,5-trimethoxyphenyl)propanoate]
isoTOP-ABPP reactivity ratio at lysine Q9UBP0_K180 (SPAST Spastin): 0.7

Compound: CC(=O)Oc1ccc([N+](=O)[O-])cc1[N+](=O)[O-] [fragment 43, 2,4-Dinitrophenyl acetate]
isoTOP-ABPP ratio (R) at liganded lysine Q9UBP0_K180 (SPAST Spastin): 2.7
isoTOP-ABPP ratio (R) at liganded lysine P04179_K68 ([1]; 50 uM, in vitro): 1.4

isoTOP-ABPP reactivity ratio at lysine Q9UBP0_K180 (SPAST Spastin): 1.0
isoTOP-ABPP reactivity ratio at lysine P04179_K68 ([1]; 50 uM, 231 sol, in vitro): 0.8
Compound: CCn1cc(C(=O)Oc2c(F)c(F)c(F)c(F)c2F)c(=O)c2ccc(C)nc21 [fragment 28, Pentafluorophenyl 1-ethyl-7-methyl-4-oxo-1,4-dihydro-1,8-naphthyridine-3-carboxylate]
